Experimental data as given in US20080254152A1, “Methods for Reducing the Effects of Stress on Skin Condition” (priority 2003, published 2008).
Where no end group is shown, it is not given here.

System: ICAM-1 expression in HUVECs
Test: ICAM-1 expression in HUVECs chronically treated with CRH, then PMA
Assay type: cell-based, Human
Settings: data not shown
Protocol: Following this, the cells were oxidatively stressed for 24 hours with 1 μM PMA (Sigma P8139).
Receptor antagonists were added to the cells during the pre-treatment period. These included the Glucocorticoid Receptor Antagonist; 2 μM Mifepristone (Sigma M8046) and two CRH receptor antagonists; 200 nM Astressin (Sigma A4933) and 200 nM α-helical CRF peptide antagonist (Sigma C2917).
ICAM-1 protein in each cell lysate was estimated using the Human sICAM-1 DuoSet ELISA kit (R&D Systems DY720) according to the manufacturer's instructions.
The capture antibody was diluted to a final concentration of 4 μg/ml in PBS and 100 μl was used to coat each well of a 96-well microtitre plate overnight at room temperature. The plate was then washed three times with wash buffer (0.05% Tween 20 in PBS). Each well received 300 μl of blocking buffer (1% BSA, 5% sucrose and 0.05% sodium azide in PBS), and the plate was incubated at room temperature for 1 hour before being washed as before. Each cell lysate was then diluted 1/200 in reagent diluent (1% BSA in PBS) and 100 μl added to duplicate wells of the antibody coated plate. Eight ICAM-1 standards were prepared in reagent diluent, at concentrations ranging from 0 to 1000 pg/ml, and duplicate 100 μl standards were added to the appropriate wells on the plate. A separate set of standards was routinely used for each plate. The plate was incubated at room temperature for 2 hours before being washed again. 100 μl of detection antibody, diluted to a final concentration of 100 ng/ml, was added to each well and the plate incubated at room temperature for 2 hours. […] The absorbance of the plates was measured at 450 nm with the correction wavelength set at 570 nm.
A standard curve was plotted of mean absorbance versus ICAM-1 concentration and the line of best fit calculated by regression analysis. The unknown concentration of ICAM-1 in the samples was calculated from this, taking the lysate dilution factor into account.
To normalise for differences in cell number and total protein concentration, the final result was expressed as ng ICAM-1 per mg of total protein. […]

| Substance | Effect on increased induction of ICAM-1 post-oxidative stress (200 nM CRH receptor antagonist during 5-day CRH pre-treatment, then PMA) | Level of ICAM-1 relative to that induced by oxidative stress after pre-treatment with CRH for five days (200 nM CRH receptor antagonist during CRH pre-treatment) | Change in ICAM-1 secretion after chronic CRH treatment (1 to 100 nM CRH daily for 5 days, then PMA, vs untreated cells) |
| --- | --- | --- | --- |
| astressin | only partially blocked | approximately half |  |
| CRH: Corticotrophin Releasing Hormone, Calbiochem 05-23-0050 (SEEPPISLDLTFHLLREVLEMARAEQLAQQAHSNRKLMEII; ends and bridges not checked; UniProt P06850 154-194, looked up) |  |  | significant increase |
